Results: patent US20030207872A1, “OMEGA-CARBOXYARYL SUBSTITUTED DIPHENYL UREAS AS RAF KINASE INHIBITORS” (BAYER CORPORATION, priority 2002, published 2003)

melting point: 228 to 230 °C
Structure (SMILES): COC(=O)c1ccc(Oc2ccc(NC(=O)Nc3ccc(Cl)c(C(F)(F)F)c3)cc2)cn1 [Entry 55, N-(4-chloro-3-(trifluoromethyl)phenyl)-N′-(4-(2-(methoxycarbonyl)-5-pyridyloxy)phenyl) urea]
